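These data come from cells grown in 96-well plates and exposed to compound for 48 hours at five concentrations. Abbreviation: GI50, concentration required for 50% inhibition of growth. Definition used: TGI = concentration required for complete inhibition of growth.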
Tests used:
Experiment in all cases: DTP human tumour cell line panel, 48 h
SK-OV-3 ovarian = test system: SK-OV-3 ovarian
HOP-92 NSCLC = test system: HOP-92 NSCLC
NCI-H226 lung = test system: NCI-H226 lung
M14 melanoma = test system: M14 melanoma
SF-295 CNS = test system: SF-295 CNS
HCT-15 colon = test system: HCT-15 colon
SW-620 colon = test system: SW-620 colon
786-0 renal = test system: 786-0 renal
SK-MEL-28 melanoma = test system: SK-MEL-28 melanoma
UO-31 renal = test system: UO-31 renal
U251 CNS = test system: U251 CNS
OVCAR-8 ovarian = test system: OVCAR-8 ovarian
CAKI-1 renal = test system: CAKI-1 renal
ACHN renal = test system: ACHN renal
COLO 205 colon = test system: COLO 205 colon
MOLT-4 leukemia = test system: MOLT-4 leukemia
HL-60(TB) leukemia = test system: HL-60(TB) leukemia
MDA-MB-468 breast = test system: MDA-MB-468 breast
A549 NSCLC = test system: A549 NSCLC
LOX IMVI melanoma = test system: LOX IMVI melanoma
A498 renal = test system: A498 renal
TK-10 renal = test system: TK-10 renal
MCF7 breast = test system: MCF7 breast
MDA-MB-231 breast = test system: MDA-MB-231 breast
OVCAR-3 ovarian = test system: OVCAR-3 ovarian
HCT-116 colon = test system: HCT-116 colon
PC-3 prostate = test system: PC-3 prostate
HT29 colon = test system: HT29 colon
OVCAR-5 ovarian = test system: OVCAR-5 ovarian
SN12C renal = test system: SN12C renal
UACC-257 melanoma = test system: UACC-257 melanoma
NCI-H522 lung = test system: NCI-H522 lung
RXF 393 renal = test system: RXF 393 renal
IGROV1 ovarian = test system: IGROV1 ovarian
HCC-2998 colon = test system: HCC-2998 colon
HS 578T breast = test system: HS 578T breast
NCI-H23 lung = test system: NCI-H23 lung
RPMI-8226 leukemia = test system: RPMI-8226 leukemia
CCRF-CEM leukemia = test system: CCRF-CEM leukemia
SK-MEL-5 melanoma = test system: SK-MEL-5 melanoma
SR leukemia = test system: SR leukemia
T-47D breast = test system: T-47D breast
SNB-19 CNS = test system: SNB-19 CNS
MALME-3M melanoma = test system: MALME-3M melanoma
SF-539 CNS = test system: SF-539 CNS
EKVX NSCLC = test system: EKVX NSCLC
K-562 leukemia = test system: K-562 leukemia
UACC-62 melanoma = test system: UACC-62 melanoma
NCI/ADR-RES ovarian = test system: NCI/ADR-RES ovarian
SF-268 CNS = test system: SF-268 CNS
SNB-75 CNS = test system: SNB-75 CNS
MDA-MB-435 = test system: MDA-MB-435
NCI-H460 lung = test system: NCI-H460 lung
SK-MEL-2 melanoma = test system: SK-MEL-2 melanoma
KM12 colon = test system: KM12 colon
BT-549 breast = test system: BT-549 breast
DU-145 prostate = test system: DU-145 prostate
OVCAR-4 ovarian = test system: OVCAR-4 ovarian
HOP-62 NSCLC = test system: HOP-62 NSCLC

Work on `Cc1ccc(NC(=O)N/N=C/c2c[nH]c3ccccc23)c(C)c1` yielded a GI50 (SK-OV-3 ovarian) of 0.391 µM, a TGI (SK-OV-3 ovarian) of 25.3 µM and a GI50 (HOP-92 NSCLC) of 1.6 µM. For the same compound, the TGI (HOP-92 NSCLC) was 19 µM, the GI50 (NCI-H226 lung) was 2.5 µM and the TGI (NCI-H226 lung) was greater than 100 µM. For the same compound, the GI50 (M14 melanoma) was 0.175 µM, the TGI (M14 melanoma) was 12.8 µM and the GI50 (SF-295 CNS) was 0.239 µM. It also gave a TGI (SF-295 CNS) of 12 µM, a GI50 (HCT-15 colon) of 0.0785 µM and a TGI (HCT-15 colon) greater than 34.9 µM. It also gave a GI50 (SW-620 colon) of 0.203 µM, a TGI (SW-620 colon) greater than 100 µM and a GI50 (786-0 renal) of 0.481 µM. The TGI (786-0 renal) was 13.9 µM, the GI50 (SK-MEL-28 melanoma) was 1.45 µM and the TGI (SK-MEL-28 melanoma) was greater than 79.3 µM. The GI50 (UO-31 renal) was 0.458 µM, the TGI (UO-31 renal) was greater than 67 µM and the GI50 (U251 CNS) was 0.316 µM. It also gave a TGI (U251 CNS) of 12.8 µM, a GI50 (OVCAR-8 ovarian) of 0.378 µM and a TGI (OVCAR-8 ovarian) of 3.11 µM. For the same compound, the GI50 (CAKI-1 renal) was 0.261 µM, the TGI (CAKI-1 renal) was greater than 44 µM and the GI50 (ACHN renal) was 0.637 µM. For the same compound, the TGI (ACHN renal) was greater than 57.6 µM, the GI50 (COLO 205 colon) was 0.361 µM and the TGI (COLO 205 colon) was 1.59 µM. For the same compound, the GI50 (MOLT-4 leukemia) was 0.269 µM, the TGI (MOLT-4 leukemia) was greater than 32.8 µM and the GI50 (HL-60(TB) leukemia) was 0.0997 µM. The TGI (HL-60(TB) leukemia) was 2.73 µM, the GI50 (MDA-MB-468 breast) was 0.178 µM and the TGI (MDA-MB-468 breast) was 0.543 µM. The GI50 (A549 NSCLC) was 0.588 µM, the TGI (A549 NSCLC) was 45.9 µM and the GI50 (LOX IMVI melanoma) was 0.365 µM. It also gave a TGI (LOX IMVI melanoma) of 8.33 µM, a GI50 (A498 renal) of 12.7 µM and a TGI (A498 renal) of 38.4 µM. It also gave a GI50 (TK-10 renal) of 2.59 µM, a TGI (TK-10 renal) of 39.6 µM and a GI50 (MCF7 breast) of 0.235 µM. For the same compound, the TGI (MCF7 breast) was 27.9 µM, the GI50 (MDA-MB-231 breast) was 0.495 µM and the TGI (MDA-MB-231 breast) was 5.41 µM. The GI50 (OVCAR-3 ovarian) was 0.138 µM, the TGI (OVCAR-3 ovarian) was 1.8 µM and the GI50 (HCT-116 colon) was 0.245 µM. It also gave a TGI (HCT-116 colon) of 4.79 µM, a GI50 (PC-3 prostate) of 0.517 µM and a TGI (PC-3 prostate) greater than 100 µM. It also gave a GI50 (HT29 colon) of 0.164 µM, a TGI (HT29 colon) of 1.04 µM and a GI50 (OVCAR-5 ovarian) of 0.565 µM. It also gave a TGI (OVCAR-5 ovarian) of 15.5 µM, a GI50 (SN12C renal) of 0.419 µM and a TGI (SN12C renal) of 8.97 µM. It also gave a GI50 (UACC-257 melanoma) of 0.573 µM, a TGI (UACC-257 melanoma) of 47.5 µM and a GI50 (NCI-H522 lung) of 0.0379 µM. The TGI (NCI-H522 lung) was 0.327 µM, the GI50 (RXF 393 renal) was 0.267 µM and the TGI (RXF 393 renal) was 6.23 µM. The GI50 (IGROV1 ovarian) was 0.378 µM, the TGI (IGROV1 ovarian) was 20.1 µM and the GI50 (HCC-2998 colon) was 0.492 µM. The TGI (HCC-2998 colon) was 4.53 µM, the GI50 (HS 578T breast) was 0.281 µM and the TGI (HS 578T breast) was 23.1 µM. For the same compound, the GI50 (NCI-H23 lung) was 0.418 µM, the TGI (NCI-H23 lung) was 12.2 µM and the GI50 (RPMI-8226 leukemia) was 0.373 µM. It also gave a TGI (RPMI-8226 leukemia) of 25.6 µM, a GI50 (CCRF-CEM leukemia) of 0.308 µM and a TGI (CCRF-CEM leukemia) greater than 40 µM. For the same compound, the GI50 (SK-MEL-5 melanoma) was 0.226 µM, the TGI (SK-MEL-5 melanoma) was 8.13 µM and the GI50 (SR leukemia) was 0.0336 µM. The TGI (SR leukemia) was greater than 21.9 µM, the GI50 (T-47D breast) was 0.363 µM and the TGI (T-47D breast) was 78 µM. The GI50 (SNB-19 CNS) was 0.554 µM, the TGI (SNB-19 CNS) was 27.2 µM and the GI50 (MALME-3M melanoma) was 0.241 µM. For the same compound, the TGI (MALME-3M melanoma) was 19.1 µM, the GI50 (SF-539 CNS) was 0.217 µM and the TGI (SF-539 CNS) was 0.7 µM. It also gave a GI50 (EKVX NSCLC) of 0.469 µM, a TGI (EKVX NSCLC) greater than 100 µM and a GI50 (K-562 leukemia) of 0.0418 µM. The TGI (K-562 leukemia) was greater than 100 µM, the GI50 (UACC-62 melanoma) was 0.151 µM and the TGI (UACC-62 melanoma) was 5.27 µM. The GI50 (NCI/ADR-RES ovarian) was 0.0689 µM, the TGI (NCI/ADR-RES ovarian) was 0.631 µM and the GI50 (SF-268 CNS) was 0.828 µM. The TGI (SF-268 CNS) was 23.4 µM, the GI50 (SNB-75 CNS) was 0.343 µM and the TGI (SNB-75 CNS) was 5.6 µM. The GI50 (MDA-MB-435) was 0.0281 µM, the TGI (MDA-MB-435) was 0.11 µM and the GI50 (NCI-H460 lung) was 0.357 µM. It also gave a TGI (NCI-H460 lung) of 15.7 µM, a GI50 (SK-MEL-2 melanoma) of 0.258 µM and a TGI (SK-MEL-2 melanoma) of 0.627 µM. For the same compound, the GI50 (KM12 colon) was 0.205 µM, the TGI (KM12 colon) was 10.1 µM and the GI50 (BT-549 breast) was 0.596 µM. The TGI (BT-549 breast) was 23.9 µM, the GI50 (DU-145 prostate) was 0.432 µM and the TGI (DU-145 prostate) was 19.4 µM. It also gave a GI50 (OVCAR-4 ovarian) of 5.49 µM, a TGI (OVCAR-4 ovarian) greater than 100 µM and a GI50 (HOP-62 NSCLC) of 0.343 µM. It also gave a TGI (HOP-62 NSCLC) of 26.2 µM.
